Results reported in US20190376039A1, “CELLS WITH IMPROVED INWARD RECTIFIER CURRENT” (priority 2018, published 2019).

How the values were obtained:
[1] = system: ES-Kir2.1 and iPS-Kir2.1 cell lines; assay: Initiation of cardiomyocyte differentiation (Day 0 medium); format: cell-based, human; conditions: 12 μM CHIR99021 in RPMI/B27-insulin
Protocol: The ES-Kir2.1 and iPS-Kir2.1 cell lines were cultured in feeder-free media and prepared for differentiation as previously described with modifications (see, e.g., Lian et al. (2012) “Robust cardiomyocyte differentiation from human pluripotent stem cells via temporal modulation of canonical Wnt signaling” Proc Natl Acad Sci USA 109: E1848-57; Lian et al. (2013) “Directed cardiomyocyte differentiation from human pluripotent stem cells by modulating Wnt/6-catenin signaling under fully defined conditions” Nature Protocols 8: 162-75, each of which is incorporated herein by reference in its entirety). In particular, five days prior to differentiation (“Differentiation Day −5”), cells were harvested and seeded. Media was removed from the stem cell cultures and the cells were and washed with 1 mL DPBS per well. Next, 1 mL of Versene was added to each well and the cells were incubated at 37° C. for 5 minutes. Cells were transferred to a 50-ml tube, an equal volume of medium was added, and the cells were resuspended by gentle pipetting to singularize the cells. Cells were counted, pelleted, and resuspended in culture medium (e.g., mTeSR1, Stem Flex, etc.) to provide cells at a concentration that is pipetted into 6-well plates at approximately 2 million cells per 6-well plate. […]

[2] = system: IK1-induced ventricular-like SC-CMs; assay: Action potentials under current clamp in paced IK1-induced SC-CMs (di-LQTS model); conditions: for slope of linear regression, EAD take-off potential vs. peak EAD voltage: 100 nM E4031; for APD10 / APD50 / APD70 / APD90 / RMP: E4031 20 nM, mean SE
Protocol: SC-CMs were singularized and plated before cellular electrophysiology experiments on 12-mm poly-d-lysine/laminin or SyntheMax pre-coated coverslips. IK1 was induced by treating singularized cells with doxycycline (2 μM) (Thermo Fisher Scientific) for 48-72 hours prior to cellular electrophysiology analysis. Borosilicate glass pipettes (3-4 MΩ) were used (Model P-97; Sutter Instruments, Novato, Calif.). Whole cell capacitance was calculated by using the time domain technique (20).
AP were measured under current clamp at 32° C. using an Axopatch 200B amplifier and pCLAMP 10 (Molecular Devices, Sunnyvale, Calif.). […] The pipette solution comprised 150 mM K-gluconate, 5 mM EGTA, 10 mM HEPES, and 5 mM MgATP (pH 7.2, KOH). Myocytes were paced at 0.5, 1, 2, and 3 Hz with a depolarizing pulse from a programmable digital stimulator (D55000; WPI, Sarasota, Fla.). AP properties including AP amplitude; resting membrane potential; AP duration at 10% (APD10), 50% (APD50), 70% (APD70), and 90% (APD90) of repolarization; and maximum upstroke velocity (dV/dtmax) were measured (pCLAMP 10; Matlab 6.0, Natick, Mass.). […] Myocytes were paced at 0.5 and 1 Hz. […] AP properties identified above were re-measured.

[3] = 20 nM E4031, 0.5 Hz pacing, p<0.01
[4] = 0.5 Hz pacing, E4031 20 nM and 100 nM, ATX-II 30 nM
[5] = drug vs baseline, E4031, ATX-II 30 nM

Compound: Cc1c[nH]c(-c2cnc(NCCNc3ccc(C#N)cn3)nc2-c2ccc(Cl)cc2Cl)n1 [CHIR99021]
- cell killing at initiation of differentiation [1]: kills all or most of the cells

Compound: Cc1cccc(CCN2CCC(C(=O)c3ccc(NS(C)(=O)=O)cc3)CC2)n1 [E4031]
- effect on APD10 compared with control ([2]; 20 nM E4031, 0.5 Hz pacing): No significant effect
- effect on APD50 compared with control ([2]; 20 nM E4031, 0.5 Hz pacing): No significant effect
- effect on APD70 compared with control [2, 3]: significantly prolongs
- effect on APD90 compared with control [2, 3]: significantly prolongs
- slope of linear regression, EAD take-off potential vs. peak EAD voltage ([2]; FIG. 4C): −2.6±0.1
- slope of linear regression, EAD take-off potential vs. peak EAD voltage ([2]; FIG. 4D, second independent experiment): −1.68±0.09
- AP prolongation (APD) compared to control [2, 4]: dose-dependent AP prolongation
- APD10 ([2]; 0.5 Hz pacing, ATX-II 30 nM): 131.1 ± 53.4 ms
- APD50 ([2]; 0.5 Hz pacing, ATX-II 30 nM): 633.8 ± 153.2 ms
- APD70 ([2]; 0.5 Hz pacing, ATX-II 30 nM): 767.5 ± 164.8 ms
- APD90 ([2]; 0.5 Hz pacing, ATX-II 30 nM): 802.4 ± 172.0 ms
- RMP ([2]; 0.5 Hz pacing, ATX-II 30 nM): −70.6 ± 4.11 mV
- effect on RMP [2, 5]: remains normally polarized and stable

Compound: ATX-II: late sodium current agonist (Alamone Labs); late INa enhancing drug (delayed channel inactivation)
- AP prolongation (APD) compared to control [2, 4]: markedly increased
- induction of early afterdepolarizations (EADs) [2, 4]: did not occur
- APD10 ([2]; 0.5 Hz pacing, ATX-II 30 nM): 45.2 ± 25.0 ms
- APD50 ([2]; 0.5 Hz pacing, ATX-II 30 nM): 869.4 ± 111.7 ms
- APD70 ([2]; 0.5 Hz pacing, ATX-II 30 nM): 1025.6 ± 107.4 ms
- APD90 ([2]; 0.5 Hz pacing, ATX-II 30 nM): 1056.9 ± 106.5 ms
- RMP ([2]; 0.5 Hz pacing, ATX-II 30 nM): −76.2 ± 3.65 mV
- effect on RMP [2, 5]: no difference
- effect on dV/dt max [2, 5]: no difference
